Key:
[1] = test system: Fusobacterium nucleatum; experiment: Binding affinity to Fusobacterium nucleatum class I aptamer assessed as ligand-target residence time at 1H-8 resonance by (1)H relaxation dispersion NMR spectroscopy
[2] = test system: Caldanaerobacter subterraneus subsp. tengcongensis; experiment: Binding affinity to Thermoanaerobacter tengcongensis class I aptamer assessed as ligand-target residence time at 1H-8 resonance by (1)H relaxation dispersion NMR spectroscopy
[3] = organism: Bos taurus; experiment: Binding affinity to bovine trypsin assessed as ligand-target residence time at 1H-9 resonance by (1)H relaxation dispersion NMR spectroscopy
[4] = organism: Bos taurus; experiment: Binding affinity to bovine trypsin assessed as ligand-target residence time at 1H-4/5 resonance by (1)H relaxation dispersion NMR spectroscopy

TIME [1]	TIME [2]	TIME [3]	TIME [4]	Structure (SMILES)
1.75e-07 h	6.39e-08 h			NCc1c[nH]c2nc(N)[nH]c(=O)c12
		5.56e-08 h	5.28e-08 h	Nc1ccc2cc3ccc(N)cc3nc2c1

Reference: ChEMBL document CHEMBL3862034, “Measurement of Ligand-Target Residence Times by 1H Relaxation Dispersion NMR Spectroscopy” (J Med Chem, 2016)
